For orientation: IC50 means the concentration that inhibits the measured activity by half. One may read the inhibition as how much of the control response was suppressed.

We go through 36 molecules from patent US20050101595A1, “N-containing cycloalkyl-substituted amino-thiazole derivatives and pharmaceutical compositions for inhibiting cell proliferation and methods for their use” (PFIZER INC., priority 2003, published 2005).

Assay [1] concerns HCT-116 cell line. The assay is described as follows: Inhibition of cell growth, tetrazolium salt (MTT) assay. The note with it: MTT; for inhibition at 0.175 µM: HCT-116, HCT-116 cells. In kind it is cell-based. The method, boiled down:
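MTT colorimetric viability: three-to-five-day compound exposure in 0.5% (v/v) DMSO at 37° C, MTT 0.2 mg/mL for the last 4 h, A540 compared with vehicle-treated cells.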

Assay [2] concerns the target CDK2/Cyclin A (Homo sapiens, UniProt P24941). Nature of the assay: Inhibition of CDK2/Cyclin A Retinoblastoma Kinase Activity. In kind it is biochemical. To be noted: for inhibition at 0.05 µM: read-out: % inhibition of CDK2 (@ 0.05 μM), compound at 0.05 μM. As to the method: Cyclin-dependent kinase activity was measured by quantifying the enzyme-catalyzed, time-dependent incorporation of radioactive phosphate from [^32P]ATP or [^33P]ATP into a protein substrate. Unless noted otherwise, assays were performed in 96-well plates in a total volume of 50 μL, in the presence of 10 mM HEPES (N-[2-hydroxyethyl]piperazine-N′-[2-ethanesulfonic acid]) (pH 7.4), 10 mM MgCl2, 25 μM adenosine triphosphate (ATP), 1 mg/mL ovalbumin, 5 μg/mL leupeptin, 1 mM dithiothreitol, 10 mM β-glycerophosphate, 0.1 mM sodium vanadate, 1 mM sodium fluoride, 2.5 mM ethylene glycol-bis(β-aminoethyl ether)-N,N,N′N′-tetraacetic acid (EGTA), 2% (v/v) dimethylsulfoxide, and 0.03-0.4 μCi [^32/33P]ATP per reaction. Reactions were initiated with enzyme, incubated at 30° C., and terminated after 20 minutes by the addition of ethylenediaminetetraacetic acid (EDTA) to 250 mM. The phosphorylated substrate was then captured on a nitrocellulose or phosphocellulose membrane using a 96-well filtration manifold, and unincorporated radioactivity was removed by repeated washing with 0.85% phosphoric acid. Radioactivity was quantified by exposing the dried membranes to a phosphorimager.
Inhibition was measured relative to control wells that contained all reaction components including 2% (v/v) DMSO but no compound, after subtraction of background radioactivity measured in the absence of enzyme. Apparent Ki values of discrete compounds were measured by assaying enzyme activity in the presence of different inhibitor compound concentrations and subtracting the background radioactivity measured in the absence of enzyme. The kinetic parameters (kcat, Km for ATP) were measured for each enzyme under the usual assay conditions by determining the dependence of initial rates on ATP concentration. Inhibition data were fit to an equation for competitive inhibition using Kaleidagraph (Synergy Software), or were fit to an equation for competitive tight-binding inhibition using the software KineTic (BioKin, Ltd.).
Inhibition of CDK2/Cyclin A Retinoblastoma Kinase Activity:
CDK2 was purified using published methodology (Rosenblatt et al., “Purification and Crystallization of Human Cyclin-dependent Kinase 2,” J. Mol. Biol., vol. 230, 1993, pp. 1317-1319) from insect cells that had been infected with a baculovirus expression vector. […] A complex of CDK2 and proteolyzed cyclin A was prepared and purified by gel filtration. The substrate for this assay was the same Rb substrate fragment used for the CDK4 assays, and the methodology of the CDK2/delta cyclin A and the CDK4/delta cyclin D3 assays was essentially the same, except that CDK2 was present at 10 nM or 19 nM. The duration of the assay was 60 or 75 minutes, during which the time-dependence of product formation was linear and initial rate conditions were met. And, the percent inhibitions of the compounds of Example O through Example R were calculated as described above and shown in Table 2.

Setting [3] is: Homo sapiens, compound at 0.175 uM.

For `CN(CCCS(=O)(=O)N1CCC(Nc2nc(N)c(C(=O)c3c(F)cccc3F)s2)CC1)Cc1ccco1` [Example V179, (4-Amino-2-{[1-({3-[(2-furylmethyl)(methyl)amino]propyl}sulfonyl)-4-piperidinyl]amino}-1,3-thiazol-5-yl)(2,6-difluorophenyl)methanone.], the IC50 in assay [1] (Homo sapiens, HCT-116, 120 h, first HCT-116 column (c4), three to five days, read-out: HCT-116 IC50) was 170 nM. Also, in assay [2] (apparent Ki, CDK2/proteolyzed cyclin A, Rb fragment substrate, 25 μM ATP), the Ki is 11 nM.
Take `NC(=O)CCNCCCS(=O)(=O)N1CCC(Nc2nc(N)c(C(=O)c3c(F)cccc3F)s2)CC1` [Example V122]: the inhibition at 0.175 µM in assay [1] (setting [3]) is 32%. Further, the inhibition at 0.05 µM in assay [2] was determined as 79%.
For `Cc1cc(NCCCS(=O)(=O)N2CCC(Nc3nc(N)c(C(=O)c4c(F)cccc4F)s3)CC2)no1` [Example V44], in that order: 17% and 80%.
In the case of `CN(C)CCNCCCS(=O)(=O)N1CCC(Nc2nc(N)c(C(=O)c3c(F)cccc3F)s2)CC1` [Example V54], the inhibition at 0.175 µM in assay [1] (setting [3]) was determined as 0%. Also, the inhibition at 0.05 µM in assay [2] was found to be 75%.
For `CC(O)CNCCCS(=O)(=O)N1CCC(Nc2nc(N)c(C(=O)c3c(F)cccc3F)s2)CC1` (stereo not drawn) [Example V42] the same measures were 4% and 79%.
For the molecule `Cc1nnc(CCNCCCS(=O)(=O)N2CCC(Nc3nc(N)c(C(=O)c4c(F)cccc4F)s3)CC2)[nH]1` [Example V174], the inhibition at 0.175 µM in assay [1] (setting [3]) turned out to be 26%. In assay [2], the inhibition at 0.05 µM was 84%.
For `Cc1nnc(CCNCCCS(=O)(=O)N2CCC(Nc3nc(N)c(C(=O)c4c(F)cccc4F)s3)CC2)o1` [Example V175] the same measures were 5% and 78%.
Turning to `COC1CCN(CCCS(=O)(=O)N2CCC(Nc3nc(N)c(C(=O)c4c(F)cccc4F)s3)CC2)CC1` [Example V171], in assay [1] (setting [3]), the inhibition at 0.175 µM is 65%. The inhibition at 0.05 µM in assay [2] came to 81%.
On to `COC(=O)CNCCCS(=O)(=O)N1CCC(Nc2nc(N)c(C(=O)c3c(F)cccc3F)s2)CC1` [Example V50], for which the inhibition at 0.175 µM in assay [1] (setting [3]) was found to be 0%. The inhibition at 0.05 µM in assay [2] is 81%.
For `Nc1nc(NC2CCN(S(=O)(=O)CCCN3CCCCC3CCO)CC2)sc1C(=O)c1c(F)cccc1F` (stereo not drawn) [Example V38], in that order: 1% and 80%.
For `CCN(CC)CCCNCCCS(=O)(=O)N1CCC(Nc2nc(N)c(C(=O)c3c(F)cccc3F)s2)CC1` [Example V14] the same measures were 18% and 75%.
For `Nc1nc(NC2CCN(S(=O)(=O)CCCNc3nccc4cccnc34)CC2)sc1C(=O)c1c(F)cccc1F` [Example V145] the same measures were 0% and 83%.
`Cc1ccc(CNCCCS(=O)(=O)N2CCC(Nc3nc(N)c(C(=O)c4c(F)cccc4F)s3)CC2)cc1` [Example V80]: the inhibition at 0.175 µM in assay [1] (setting [3]) turned out to be 21%. In assay [2], the inhibition at 0.05 µM turned out to be 91%.
With `CCCCCNCCCS(=O)(=O)N1CCC(Nc2nc(N)c(C(=O)c3c(F)cccc3F)s2)CC1` [Example V89], in assay [1] (setting [3]), the inhibition at 0.175 µM is 42%. The inhibition at 0.05 µM in assay [2] turned out to be 85%.
For `NC(=O)[C@@H]1CCCN1CCCS(=O)(=O)N1CCC(Nc2nc(N)c(C(=O)c3c(F)cccc3F)s2)CC1` [Example V87] the same measures were 3% and 80%.
For `Nc1nc(NC2CCN(S(=O)(=O)CCCN[C@H]3CC[C@H](O)CC3)CC2)sc1C(=O)c1c(F)cccc1F` [Example V39], the inhibition at 0.175 µM in assay [1] (setting [3]) worked out at 0%. Further, the inhibition at 0.05 µM in assay [2] is 84%.
As to `Nc1nc(NC2CCN(S(=O)(=O)CCCNCc3ccccc3)CC2)sc1C(=O)c1c(F)cccc1F` [Example V12], the inhibition at 0.175 µM in assay [1] (setting [3]) was 69%. In addition, the inhibition at 0.05 µM in assay [2] is 93%.
As to `COC(=O)C1CCN(CCCS(=O)(=O)N2CCC(Nc3nc(N)c(C(=O)c4c(F)cccc4F)s3)CC2)C1` (stereo not drawn) [Example V160], in assay [1] (setting [3]), the inhibition at 0.175 µM was 0%. The inhibition at 0.05 µM in assay [2] is 84%.
For `Nc1nc(NC2CCN(S(=O)(=O)CCCN3CCCC3)CC2)sc1C(=O)c1c(F)cccc1F` [Example V64] the same measures were 0% and 17%.
With `Nc1nc(NC2CCN(S(=O)(=O)CCCN3CCCCC3)CC2)sc1C(=O)c1c(F)cccc1F` [Example V55], in assay [1] (setting [3]), the inhibition at 0.175 µM worked out at 56%. For the same molecule, the inhibition at 0.05 µM in assay [2] is 84%.
For `CN(C)CCCN(C)CCCS(=O)(=O)N1CCC(Nc2nc(N)c(C(=O)c3c(F)cccc3F)s2)CC1` [Example V32], in that order: 11% and 78%.
For the molecule `Nc1nc(NC2CCN(S(=O)(=O)CCCNc3ccccn3)CC2)sc1C(=O)c1c(F)cccc1F` [Example V2], the inhibition at 0.175 µM in assay [1] (setting [3]) worked out at 6%. Also, the inhibition at 0.05 µM in assay [2] amounted to 85%.
For `Cc1c(CNCCCS(=O)(=O)N2CCC(Nc3nc(N)c(C(=O)c4c(F)cccc4F)s3)CC2)cnn1C` [Example V173] the same measures were 0% and 85%.
For `Nc1nc(NC2CCN(S(=O)(=O)CCCN(CCO)CCO)CC2)sc1C(=O)c1c(F)cccc1F` [Example V78], in that order: 7% and 80%.
For the molecule `Nc1nc(NC2CCN(S(=O)(=O)CCCNCc3ccccn3)CC2)sc1C(=O)c1c(F)cccc1F` [Example V7], the inhibition at 0.175 µM in assay [1] (setting [3]) came out at 0%. Further, the inhibition at 0.05 µM in assay [2] came out at 82%.
For `CC(NCCCS(=O)(=O)N1CCC(Nc2nc(N)c(C(=O)c3c(F)cccc3F)s2)CC1)c1ccccc1` (stereo not drawn) [Example V53], in that order: 75% and 91%.
For `Nc1nc(NC2CCN(S(=O)(=O)CCCNCCN3CCCCC3)CC2)sc1C(=O)c1c(F)cccc1F` [Example V5] the same measures were 7% and 79%.
For `Nc1nc(NC2CCN(S(=O)(=O)CCCNCCc3ccncc3)CC2)sc1C(=O)c1c(F)cccc1F` [Example V94], in that order: 0% and 87%.
For the molecule `Nc1nc(NC2CCN(S(=O)(=O)CCCNCC3COCCO3)CC2)sc1C(=O)c1c(F)cccc1F` (stereo not drawn) [Example V163], in assay [1] (setting [3]), the inhibition at 0.175 µM was 2%. In assay [2], the inhibition at 0.05 µM turned out to be 83%.
`CCCN(CCCS(=O)(=O)N1CCC(Nc2nc(N)c(C(=O)c3c(F)cccc3F)s2)CC1)CC1CC1` [Example V61]: the inhibition at 0.175 µM in assay [1] (setting [3]) turned out to be 65%. In addition, the inhibition at 0.05 µM in assay [2] stood at 81%.
As to `CN(C)C1CCN(CCCS(=O)(=O)N2CCC(Nc3nc(N)c(C(=O)c4c(F)cccc4F)s3)CC2)C1` (stereo not drawn) [Example V99], in assay [1] (setting [3]), the inhibition at 0.175 µM worked out at 0%. In assay [2], the inhibition at 0.05 µM was 69%.
As for `CN(CCCS(=O)(=O)N1CCC(Nc2nc(N)c(C(=O)c3c(F)cccc3F)s2)CC1)CC(N)=O` [Example V138], in assay [1] (setting [3]), the inhibition at 0.175 µM stood at 0%. Moreover, the inhibition at 0.05 µM in assay [2] amounted to 76%.
For the molecule `Nc1ncccc1CNCCCS(=O)(=O)N1CCC(Nc2nc(N)c(C(=O)c3c(F)cccc3F)s2)CC1` [Example V151], the inhibition at 0.175 µM in assay [1] (setting [3]) stood at 0%. Moreover, in assay [2], the inhibition at 0.05 µM amounted to 79%.
On to `Nc1nc(NC2CCN(S(=O)(=O)CCCN3CCCCCC3)CC2)sc1C(=O)c1c(F)cccc1F` [Example V37], for which, in assay [1] (HCT-116 cells, compound at 0.175 uM, 0.175 µM), the “% inhibition HCT-116 in MTT @ 0.175 uM” value is 65%. In addition, the “% inhibition of CDK2 (@ 0.05 μM)” value in assay [2] (compound at 0.05 μM, 0.05 µM) is listed as 85%.
For `Nc1nc(NC2CCN(S(=O)(=O)CCCNCc3ncccc3O)CC2)sc1C(=O)c1c(F)cccc1F` [Example V165], the inhibition at 0.175 µM in assay [1] (setting [3]) worked out at 6%. Further, the inhibition at 0.05 µM in assay [2] turned out to be 93%.
For `Nc1nc(NC2CCN(S(=O)(=O)CCCNCC3CCCCC3)CC2)sc1C(=O)c1c(F)cccc1F` [Example V118] the same measures were 54% and 90%.
